From US8153795B2, “Substituted 1-oxa-3,8-diazaspiro[4.5]-decan-2-one-compounds and the use thereof for producing drugs” (Gruenenthal GmbH, priority 2005, dated 2012)

Assays:
[1] = biological target: T1, 5-HT transporter (Rattus norvegicus, UniProt P31652); assay: 5-HT uptake inhibition in rat brain synaptosomes (medulla and pons), [3H]-5-HT; type: biochemical
T1 construct: from tissue; host or cells: rat brain synaptosomes (P2 fraction) from medulla and pons
How it was run: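 Freshly isolated P2 synaptosomes taken from rat hypothalamus (NA) or medulla/pons (5-HT) were incubated at room temperature under O2 with [3H]-NA for 7.5 min or [3H]-5-HT for 5 min. Uptake was measured as filter-retained radioactivity by scintillation counting.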

[2] = biological target: T2, NA transporter (Rattus norvegicus, UniProt Q63380); assay: noradrenalin uptake inhibition in rat brain synaptosomes (hypothalamus), [3H]-NA; type: biochemical
T2 construct: from tissue; host or cells: rat brain synaptosomes (P2 fraction) from hypothalamus
T2 sequence (Q63380 1-617): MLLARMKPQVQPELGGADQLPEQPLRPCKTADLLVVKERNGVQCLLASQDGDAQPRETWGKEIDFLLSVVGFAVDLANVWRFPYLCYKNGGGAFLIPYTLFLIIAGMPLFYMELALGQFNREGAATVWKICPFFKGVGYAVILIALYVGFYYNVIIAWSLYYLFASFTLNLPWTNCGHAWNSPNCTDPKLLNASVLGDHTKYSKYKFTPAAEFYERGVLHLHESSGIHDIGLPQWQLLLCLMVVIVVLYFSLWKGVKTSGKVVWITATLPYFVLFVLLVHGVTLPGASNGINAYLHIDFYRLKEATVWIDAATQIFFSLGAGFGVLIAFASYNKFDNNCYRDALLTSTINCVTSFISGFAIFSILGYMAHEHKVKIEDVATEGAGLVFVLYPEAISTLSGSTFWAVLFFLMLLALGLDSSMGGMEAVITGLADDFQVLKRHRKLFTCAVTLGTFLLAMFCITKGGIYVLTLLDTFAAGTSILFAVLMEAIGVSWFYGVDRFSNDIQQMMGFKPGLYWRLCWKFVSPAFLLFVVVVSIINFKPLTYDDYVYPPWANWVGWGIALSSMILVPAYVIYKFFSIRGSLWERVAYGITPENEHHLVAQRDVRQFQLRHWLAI
Excerpt: a) Method for Determining Noradrenalin and 5-HT Uptake Inhibition:
Synaptosomes from rat brain regions are freshly isolated for in vitro studies, as described in the publication “The isolation of nerve endings from brain” by E. G. Gray and V. P. Whittaker, J. Anatomy 96, pages 79-88, 1962. The corresponding literature description is hereby introduced as a reference and is deemed to be part of the disclosure.
The tissue (hypothalamus for the determination of noradrenalin uptake inhibition and medulla and pons for the determination of 5-HT uptake inhibition) is homogenised in ice-cooled 0.32 M sucrose (100 mg of tissue/1 mL) in a glass homogeniser with Teflon pestle using five complete up and down strokes at 840 revolutions/minute.
The homogenate is centrifuged at 4° C. for 10 minutes at 1000 g. After subsequent centrifugation at 17000 g for 55 minutes, the synaptosomes (P2 fraction) are obtained, which are resuspended in 0.32 M […] (0.5 mL/100 mg of original weight).
The particular uptake is measured in a 96-well microtitre plate. The volume is 250 μl and the incubation proceeds at room temperature (approx. 20-25° C.) under an O2 atmosphere.
The incubation time is 7.5 minutes for [^3H]-NA and 5 minutes for [^3H]-5-HT. The 96 samples are then filtered through a Unifilter GF/B® microtitre plate (Packard) and washed with 200 mL of incubated buffer using a “Brabdel MPXRI-96T Cell-Harvester”. The Unifilter GF/B plate is dried for 1 hour at 55° C. The plate is then sealed with a Back Seal® (Packard) and 35 μl of scintillation fluid are added per well (Ultima Gold®, Packard). After sealing with a top Seal® (Packard) and establishing an equilibrium (around 5 hours), radioactivity is determined in a “Trilux 1450 Microbeta” (Wallac).
The quantity of protein used in the above determination corresponds to the values known from the literature, as for example described in “Protein measurement with the folin phenol reagent”, Lowry et al., J. Biol. Chem., 193, 265-275, 1951.
A detailed description of the method may additionally be found in the literature, for example in M. Ch. Frink, H.-H. Hennies, W. Engelberger, M. Haurand and B. Wilffert (1996) Arzneim.-Forsch./Drug Res. 46 (III), 11, 1029-1036.

T1 sequence (P31652 whole entry): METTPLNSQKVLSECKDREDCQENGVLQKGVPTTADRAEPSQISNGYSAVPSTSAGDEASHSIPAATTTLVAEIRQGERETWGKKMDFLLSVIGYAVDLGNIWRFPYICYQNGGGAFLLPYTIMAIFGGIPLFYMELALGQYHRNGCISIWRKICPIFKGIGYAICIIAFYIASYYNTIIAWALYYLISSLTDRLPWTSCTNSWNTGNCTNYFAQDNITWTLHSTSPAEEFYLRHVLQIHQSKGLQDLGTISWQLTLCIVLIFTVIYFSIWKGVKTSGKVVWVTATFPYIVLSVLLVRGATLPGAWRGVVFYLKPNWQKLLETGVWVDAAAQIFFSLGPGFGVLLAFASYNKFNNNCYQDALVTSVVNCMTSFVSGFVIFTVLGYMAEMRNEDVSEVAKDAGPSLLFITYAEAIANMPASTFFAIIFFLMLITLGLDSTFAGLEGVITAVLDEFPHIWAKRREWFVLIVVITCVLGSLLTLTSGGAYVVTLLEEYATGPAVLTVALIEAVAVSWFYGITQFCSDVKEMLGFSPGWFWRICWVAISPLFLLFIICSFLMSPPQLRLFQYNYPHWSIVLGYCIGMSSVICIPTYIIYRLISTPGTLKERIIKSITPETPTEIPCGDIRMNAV

Compound | inhibition at 10 µM [1] | inhibition at 10 µM [2]
N#Cc1cccc(CN2CC3(CCN(C(=S)Nc4cccc(C(F)(F)F)c4)CC3)OC2=O)c1 [Example 15, 3-(3-cyanobenzyl)-2-oxo-1-oxa-3,8-diazaspiro[4.5]decane-8-carbothioic acid (3-trifluoromethylphenyl)amide] | 57% | 55%
CCOc1ccc(NC(=O)N2CCC3(CC2)CN(Cc2ccccc2F)C(=O)O3)cc1 [Example 24, 3-(2-fluorobenzyl)-2-oxo-1-oxa-3,8-diazaspiro[4.5]decane-8-carboxylic acid (4-ethoxyphenyl)amide] |  | 58%
Cc1ccccc1NC(=S)N1CCC2(CC1)CN(Cc1ccccc1)C(=O)O2 [Example 8, 3-benzyl-2-oxo-1-oxa-3,8-diazaspiro[4.5]decane-8-carbothioic acid o-tolylamide] | 62% | 50%
COc1cc(OC)cc(C(=O)N2CCC3(CC2)CN(Cc2cccc(Br)c2)C(=O)O3)c1 [Example 137, 3-(3-bromobenzyl)-8-(3,5-dimethoxybenzoyl)-1-oxa-3,8-diazaspiro[4.5]decan-2-one] | 74% | 84%
C=CCNC(=S)N1CCC2(CC1)CN(Cc1ccc3ccccc3c1)C(=O)O2 [Example 10, 3-naphthalen-2-ylmethyl-2-oxo-1-oxa-3,8-diazaspiro[4.5]decane-8-carbothioic acid allylamide] | 50% | 78%
COc1cccc(NC(=O)N2CCC3(CC2)CN(Cc2ccc(F)c(F)c2)C(=O)O3)c1 [Example 35, 3-(3,4-difluorobenzyl)-2-oxo-1-oxa-3,8-diazaspiro[4.5]decane-8-carboxylic acid (3-methoxyphenyl)amide] | 56% | 63%
O=C(NCCc1ccccc1)N1CCC2(CC1)CN(Cc1ccccc1-c1ccccc1)C(=O)O2 [Example 57, 3-biphenyl-2-ylmethyl-2-oxo-1-oxa-3,8-diazaspiro[4.5]decane-8-carboxylic acid phenethylamide] | 50% | 55%
Cc1ccc(NC(=O)N2CCC3(CC2)CN(Cc2ccc(F)c(F)c2)C(=O)O3)cc1[N+](=O)[O-] [Example 34, 3-(3,4-difluorobenzyl)-2-oxo-1-oxa-3,8-diazaspiro[4.5]decane-8-carboxylic acid (4-methyl-3-nitrophenyl)amide] |  | 41%
O=C1OC2(CCN(C(=S)Nc3ccccc3)CC2)CN1Cc1ccccc1-c1ccccc1 [Example 18, 3-biphenyl-2-ylmethyl-2-oxo-1-oxa-3,8-diazaspiro[4.5]decan-8-carbothioic acid phenylamide] |  | 55%
Cc1ccc(CN2CC3(CCN(CC(=O)Nc4ccc(S(=O)(=O)Nc5cc(Cl)cc(Cl)c5)cc4)CC3)OC2=O)cc1 [Example 75, N-[4-(3,5-dichlorophenylsulfamoyl)phenyl]-2-[3-(4-methylbenzyl)-2-oxo-1-oxa-3,8-diazaspiro[4.5]dec-8-yl]acetamide] |  | 67%
O=C(NCCc1ccccc1)N1CCC2(CC1)CN(Cc1ccccc1C(F)(F)F)C(=O)O2 [Example 49, 2-oxo-3-(2-trifluoromethylbenzyl)-1-oxa-3,8-diazaspiro[4.5]decane-8-carboxylic acid phenethylamide] |  | 48%
O=C(Nc1cccc(F)c1)N1CCC2(CC1)CN(Cc1ccccc1)C(=O)O2 [Example 60, 3-benzyl-2-oxo-1-oxa-3,8-diazaspiro[4.5]decane-8-carboxylic acid (3-fluorophenyl)amide] |  | 58%
CC(=O)c1cccc(NC(=S)N2CCC3(CC2)CN(Cc2ccccc2F)C(=O)O3)c1 [Example 20, 3-(2-fluorobenzyl)-2-oxo-1-oxa-3,8-diazaspiro[4.5]decane-8-carbothioic acid (3-acetylphenyl)amide] |  | 48%
O=C(Nc1ccc(Cl)c(C(F)(F)F)c1)N1CCC2(CC1)CN(Cc1ccccc1)C(=O)O2 [Example 37, 3-benzyl-2-oxo-1-oxa-3,8-diazaspiro[4.5]decane-8-carboxylic acid (4-chloro-3-trifluoromethylphenyl)amide] |  | 47%
Cc1cc(C)cc(CN2CC3(CCN(C(=S)NCC4CCCO4)CC3)OC2=O)c1 (centres unmarked) [Example 4, 3-(3,5-dimethylbenzyl)-2-oxo-1-oxa-3,8-diazaspiro[4.5]decane-8-carbothioic acid (tetrahydrofuran-2-ylmethyl)amide] | 76% | 
N#Cc1ccccc1CN1CC2(CCN(Cc3ccc(Cl)cc3)CC2)OC1=O [Example 82, 2-[8-(4-chlorobenzyl)-2-oxo-1-oxa-3,8-diazaspiro[4.5]dec-3-ylmethyl]benzonitrile] | 56% | 
CCOC(=O)CC(C)NC(=S)N1CCC2(CC1)CN(Cc1cccc(Br)c1)C(=O)O2 (centres unmarked) [Example 9, 3-{[3-(3-bromobenzyl)-2-oxo-1-oxa-3,8-diazaspiro[4.5]decane-8-carbothioyl]amino}butanoic acid ethyl ester] |  | 81%
COc1ccc(OC)c(CS(=O)(=O)N2CCC3(CC2)CN(Cc2cc(C)cc(C)c2)C(=O)O3)c1 [Example 107, 8-(2,5-dimethoxybenzylsulfonyl)-3-(3,5-dimethylbenzyl)-1-oxa-3,8-diazaspiro[4.5]decan-2-one] | 76% | 
Cc1ccc(CN2CC3(CCN(Cc4ccc5ccccc5c4Br)CC3)OC2=O)cc1 [Example 90, 8-(1-bromonaphthalen-2-ylmethyl)-3-(4-methylbenzyl)-1-oxa-3,8-diazaspiro[4.5]decan-2-one] | 77% | 
O=C1OC2(CCN(C(=O)c3cc(C(F)(F)F)cc(C(F)(F)F)c3)CC2)CN1Cc1ccc(C(F)(F)F)cc1 [Example 143, 8-(3,5-bis-trifluoromethylbenzoyl)-3-(4-trifluoromethylbenzyl)-1-oxa-3,8-diazaspiro[4.5]decan-2-one] | 66% | 
COCCNC(=S)N1CCC2(CC1)CN(Cc1cccc(Br)c1)C(=O)O2 [Example 5, 3-(3-bromobenzyl)-2-oxo-1-oxa-3,8-diazaspiro[4.5]decane-8-carbothioic acid (2-methoxyethyl)amide] |  | 70%
COc1cccc(CN2CC3(CCN(C(=O)c4ccc(OC)cc4OC)CC3)OC2=O)c1 [Example 112, 8-(2,4-dimethoxybenzoyl)-3-(3-methoxybenzyl)-1-oxa-3,8-diazaspiro[4.5]decan-2-one] | 66% | 
CCSc1ncccc1C(=O)N1CCC2(CC1)CN(Cc1ccccc1C(F)(F)F)C(=O)O2 [Example 127, 8-(2-ethylsulfanylpyridine-3-carbonyl)-3-(2-trifluoromethylbenzyl)-1-oxa-3,8-diazaspiro[4.5]decan-2-one] | 63% | 
O=C1OC2(CCN(C(=S)NCc3ccccc3)CC2)CN1Cc1ccc(C(F)(F)F)cc1 [Example 3, 2-oxo-3-(4-trifluoromethylbenzyl)-1-oxa-3,8-diazaspiro[4.5]decane-8-carbothioic acid benzylamide] | 69% | 
CC(C)(C)OC(=O)NC(Cc1c[nH]c2ccccc12)C(=O)N1CCC2(CC1)CN(Cc1cccc(Br)c1)C(=O)O2 (centres unmarked) [Example 66, [2-[3-(3-bromobenzyl)-2-oxo-1-oxa-3,8-diazaspiro[4.5]dec-8-yl]-1-(1H-indol-3-ylmethyl)-2-oxoethyl]carbamic acid tert-butyl ester] | 53% | 
CC(NC(=O)N1CCC2(CC1)CN(Cc1ccc(C(F)(F)F)cc1)C(=O)O2)c1cccc2ccccc12 (centres unmarked) [Example 48, 2-oxo-3-(4-trifluoromethylbenzyl)-1-oxa-3,8-diazaspiro[4.5]decane-8-carboxylic acid (1-naphthalen-1-yl-ethyl)amide] | 43% | 
Cc1cc(C)cc(CN2CC3(CCN(C(=O)c4cc(C)on4)CC3)OC2=O)c1 [Example 122, 3-(3,5-dimethylbenzyl)-8-(5-methylisoxazole-3-carbonyl)-1-oxa-3,8-diazaspiro[4.5]decan-2-one] | 68% | 
CC(=O)c1cccc(NC(=O)N2CCC3(CC2)CN(Cc2ccc(C#N)cc2)C(=O)O3)c1 [Example 56, 3-(4-cyanobenzyl)-2-oxo-1-oxa-3,8-diazaspiro[4.5]decane-8-carboxylic acid (3-acetylphenyl)amide] | 60% | 
CC(=O)Nc1ccc(C(=O)N2CCC3(CC2)CN(Cc2cccc(C#N)c2)C(=O)O3)cc1 [Example 91, N-{4-[3-(3-cyanobenzyl)-2-oxo-1-oxa-3,8-diazaspiro[4.5]decane-8-carbonyl]phenyl}acetamide] | 68% | 
